# According to patent publication US20100168102A9, “Amide Derivatives as Kinase Inhibitors” (Devgen NV, priority 2005, published 2010):
# Key:
# PKC epsilon = target: T1, PKC epsilon (Homo sapiens, UniProt Q02156); assay: Biochemical assay for PKC epsilon (fluorescence polarization, Protein Kinase C Assay Kit, Red); conditions: read-out: IC50 μM PKCε
# T1 construct: purchased Invitrogen P2282
# T1 sequence (Q02156 1-737): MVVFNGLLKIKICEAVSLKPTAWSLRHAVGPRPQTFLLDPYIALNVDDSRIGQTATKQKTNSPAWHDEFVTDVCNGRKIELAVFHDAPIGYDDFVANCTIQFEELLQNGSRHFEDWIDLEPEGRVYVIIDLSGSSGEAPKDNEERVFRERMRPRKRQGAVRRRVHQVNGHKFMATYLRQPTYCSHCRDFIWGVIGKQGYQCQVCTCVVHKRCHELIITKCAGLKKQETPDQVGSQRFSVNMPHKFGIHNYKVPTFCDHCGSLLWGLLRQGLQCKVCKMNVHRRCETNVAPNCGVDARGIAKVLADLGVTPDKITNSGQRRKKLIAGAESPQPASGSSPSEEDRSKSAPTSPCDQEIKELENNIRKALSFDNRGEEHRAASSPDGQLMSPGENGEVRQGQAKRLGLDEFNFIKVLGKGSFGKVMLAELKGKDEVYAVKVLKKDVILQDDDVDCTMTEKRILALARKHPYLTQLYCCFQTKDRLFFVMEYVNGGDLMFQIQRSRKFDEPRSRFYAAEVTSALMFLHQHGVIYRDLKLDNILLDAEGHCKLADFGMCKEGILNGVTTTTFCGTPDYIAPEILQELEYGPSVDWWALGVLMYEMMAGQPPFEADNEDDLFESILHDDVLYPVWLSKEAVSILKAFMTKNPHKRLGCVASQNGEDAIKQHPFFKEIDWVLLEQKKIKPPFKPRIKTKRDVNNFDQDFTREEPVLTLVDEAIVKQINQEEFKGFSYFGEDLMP
# In short: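 Read-out was fluorescence-polarization competition between phosphorylated substrate and a rhodamine PKC tracer for an anti-phosphoserine antibody, added with EDTA stop after an 80 min room-temperature kinase reaction with ATP and protein substrate (Mg2+/Ca2+ buffer). Enzyme (10 ng/ml final) was preincubated with compound for 30 min.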
# human ROCKα/ROCKII mix = target: T2, human ROCKα/ROCKII mix (Homo sapiens, UniProt O75116); assay: Biochemical assay for ROCK (fluorescence polarization, ROCK IMAP Kit)
# T2 construct: purchased Upstate Biotechnology 14-451
# T2 sequence (O75116 11-552 limits assumed): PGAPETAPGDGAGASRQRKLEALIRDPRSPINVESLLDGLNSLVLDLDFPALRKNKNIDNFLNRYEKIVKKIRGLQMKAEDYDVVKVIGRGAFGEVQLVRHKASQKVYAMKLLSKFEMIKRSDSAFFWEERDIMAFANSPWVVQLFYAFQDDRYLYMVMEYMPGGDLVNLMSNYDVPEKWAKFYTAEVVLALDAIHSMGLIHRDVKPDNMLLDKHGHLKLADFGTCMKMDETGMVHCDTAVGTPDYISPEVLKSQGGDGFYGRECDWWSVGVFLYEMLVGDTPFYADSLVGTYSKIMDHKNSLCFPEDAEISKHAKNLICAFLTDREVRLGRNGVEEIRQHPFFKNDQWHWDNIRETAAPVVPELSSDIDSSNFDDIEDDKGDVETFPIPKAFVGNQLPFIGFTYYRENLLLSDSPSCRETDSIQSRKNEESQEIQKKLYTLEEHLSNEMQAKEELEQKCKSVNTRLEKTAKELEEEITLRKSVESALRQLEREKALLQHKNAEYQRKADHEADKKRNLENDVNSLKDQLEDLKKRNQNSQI
structure (smiles),measurement,setting,value
"COc1cc(CC(=O)N2CCCC2C(N)c2ccc(C(=O)Nc3ccncc3)cc2)cc(OC)c1OC (centres unmarked) [Compound 532, 4-(Amino-{1-[2-(3,4,5-trimethoxy-phenyl)-acetyl]-pyrrolidin-2-yl}-methyl)-N-pyridin-4-yl-benzamide]",IC50,PKC epsilon,5 to 50 µM
same,IC50,human ROCKα/ROCKII mix,0.5 to 5 µM
"NC(c1ccc(C(=O)Nc2ccncc2)cc1)C1CCCN1C(=O)Cc1ccc2ccccc2c1 (centres unmarked) [Compound 535, 4-{Amino-[1-(2-naphthalen-2-yl-acetyl)-pyrrolidin-2-yl]-methyl}-N-pyridin-4-yl-benzamide]",IC50,PKC epsilon,0.5 to 5 µM
same,IC50,human ROCKα/ROCKII mix,0.5 to 5 µM
"NC(c1ccc(C(=O)Nc2ccncc2)cc1)C1CCCN1C(=O)Cc1cccc2ccccc12 (centres unmarked) [Compound 536, 4-{Amino-[1-(2-naphthalen-1-yl-acetyl)-pyrrolidin-2-yl]-methyl}-N-pyridin-4-yl-benzamide]",IC50,PKC epsilon,0.5 to 5 µM
same,IC50,human ROCKα/ROCKII mix,0.5 to 5 µM
"NC(c1ccc(C(=O)Nc2ccncc2)cc1)C1CCCN1C(=O)Cc1ccc(-c2ccccc2)cc1 (centres unmarked) [Compound 537, 4-{Amino-[1-(2-biphenyl-4-yl-acetyl)-pyrrolidin-2-yl]-methyl}-N-pyridin-4-yl-benzamide]",IC50,PKC epsilon,0.5 to 5 µM
same,IC50,human ROCKα/ROCKII mix,0.5 to 5 µM
"NC(c1ccc(C(=O)Nc2ccncc2)cc1)C1CCCN1C(=O)Cc1ccc(O)c([N+](=O)[O-])c1 (centres unmarked) [Compound 540, 4-(Amino-{1-[2-(4-hydroxy-3-nitro-phenyl)-acetyl]-pyrrolidin-2-yl}-methyl)-N-pyridin-4-yl-benzamide]",IC50,PKC epsilon,5 to 50 µM
same,IC50,human ROCKα/ROCKII mix,0.5 to 5 µM
"NC(c1ccc(C(=O)Nc2ccncc2)cc1)C1CCCN1C(=O)Cc1cncc(Br)c1 (centres unmarked) [Compound 543, 4-(Amino-{1-[2-(5-bromo-pyridin-3-yl)-acetyl]-pyrrolidin-2-yl}-methyl)-N-pyridin-4-yl-benzamide]",IC50,PKC epsilon,5 to 50 µM
same,IC50,human ROCKα/ROCKII mix,0.5 to 5 µM
"NC(c1ccc(C(=O)Nc2ccncc2)cc1)C1CCCN1C(=O)Cc1c[nH]c2ccccc12 (centres unmarked) [Compound 544, 4-{Amino-[1-(2-1H-indol-3-yl-acetyl)-pyrrolidin-2-yl]-methyl}-N-pyridin-4-yl-benzamide]",IC50,PKC epsilon,0.5 to 5 µM
same,IC50,human ROCKα/ROCKII mix,0.5 to 5 µM
"NC(c1ccc(C(=O)Nc2ccncc2)cc1)C1CCCN1C(=O)Cc1csc(-c2ccccc2)n1 (centres unmarked) [Compound 546, 4-(Amino-{1-[2-(2-phenyl-thiazol-4-yl)-acetyl]-pyrrolidin-2-yl}-methyl)-N-pyridin-4-yl-benzamide]",IC50,PKC epsilon,0.5 to 5 µM
same,IC50,human ROCKα/ROCKII mix,0.5 to 5 µM
"NC(c1ccc(C(=O)Nc2ccncc2)cc1)C1CCCN1C(=O)Cc1cccs1 (centres unmarked) [Compound 547, 4-{Amino-[1-(2-thiophen-2-yl-acetyl)-pyrrolidin-2-yl]-methyl}-N-pyridin-4-yl-benzamide]",IC50,PKC epsilon,5 to 50 µM
same,IC50,human ROCKα/ROCKII mix,0.05 to 0.5 µM
"NC(c1ccc(C(=O)Nc2ccncc2)cc1)C1CCCN1C(=O)C1(c2cccs2)CC1 (centres unmarked) [Compound 549, 4-{Amino-[1-(1-thiophen-2-yl-cyclopropanecarbonyl)-pyrrolidin-2-yl]-methyl}-N-pyridin-4-yl-benzamide]",IC50,PKC epsilon,5 to 50 µM
same,IC50,human ROCKα/ROCKII mix,0.5 to 5 µM
"NC(c1ccc(C(=O)Nc2ccncc2)cc1)C1CCCN1C(=O)C1(c2ccsc2)CC1 (centres unmarked) [Compound 551, 4-{Amino-[1-(1-thiophen-3-yl-cyclopropanecarbonyl)-pyrrolidin-2-yl]-methyl}-N-pyridin-4-yl-benzamide]",IC50,PKC epsilon,5 to 50 µM
same,IC50,human ROCKα/ROCKII mix,0.5 to 5 µM
"NC(c1ccc(C(=O)Nc2ccncc2)cc1)C1CCCN1C(=O)C1Cc2ccccc21 (centres unmarked) [Compound 552, 4-{Amino-[1-(bicyclo[4.2.0]octa-1,3,5-triene-7-carbonyl)-pyrrolidin-2-yl]-methyl}-N-pyridin-4-yl-benzamide]",IC50,PKC epsilon,5 to 50 µM
same,IC50,human ROCKα/ROCKII mix,0.05 to 0.5 µM
"NC(c1ccc(C(=O)Nc2ccncc2)cc1)C1CCCN1C(=O)C(c1ccccc1)C1CCCCC1 (centres unmarked) [Compound 555, 4-{Amino-[1-(2-cyclohexyl-2-phenyl-acetyl)-pyrrolidin-2-yl]-methyl}-N-pyridin-4-yl-benzamide]",IC50,PKC epsilon,0.5 to 5 µM
same,IC50,human ROCKα/ROCKII mix,0.5 to 5 µM
